# Assay results published in patent publication US6265418A, “N-acylamino acid amide compounds and intermediates for preparation thereof” (Ube Industries, Ltd., priority 1997, dated 2001).
# pIC50: −log10 of the molar value. Read-outs that look alike come from different tables or passages of the source.
# How the values were obtained:
# [1] = system: platelet aggregation induced by ADP; test: ADP (adenosine diphosphate) induced-platelet aggregation inhibiting activity (in vitro, platelet-rich plasma); type: cell-based, human (healthy volunteer); conditions: ADP final concentration 10 μM, 37° C., pre-incubation 5 minutes, prime (') = converted into carboxylic acid compound before test, read-out: in vitro Platelet aggregation inhibition activity IC50
# Method: ADP (adenosine diphosphate) induced-platelet aggregation inhibiting activity
# (1) Preparation Method of Platelet-rich Plasma
# By using 0.1 volume of 3.8% sodium citrate as an anticoagulant, citrate-added blood collected from an elbow vein of a healthy volunteer was centrifuged at 500×g (=1600 rpm) for 3 minutes and the supernatant was fractionated as platelet-rich plasma (PRP). The under layer was further centrifuged at 1800×g (3200 rpm) for 15 minutes and the supernatant was fractionated as platelet-poor blood plasma (PPP) and used for ADP aggregation (coagulation) measurement.
# (2) Measurement Method of ADP-induced Platelet Aggregation
# PRP obtained as mentioned above was diluted by the platelet-poor plasma (PPP) to adjust the number of platelet to 30 to 40×10^4 /μL, and platelet aggregation induced by ADP was measured by using an aggrigometer (available from NBS Co., Hematracer Va.). First, 185 μL of PRP was placed in a glass cuvette for exclusive use, 5 μL of a test compound solution or a solvent (control) for preparing test compound was added thereto, and the mixture was pre-incubated while stirring (1000 ppm) at 37° C. for 5 minutes. Thereafter, 10 μL (final concentration 10 μM) of an ADP solution was added thereto to induce platelet aggregation. Change in transmittance caused by platelet aggregation was recorded for 3 minutes after addition of ADP.
# Transmittances of PRP and PPP were made 0 and 100%, respectively, and the maximum transmittance after adding ADP was made the maximum aggregation ratio. The maximum aggregation ratio when the test compound was added divided by that ratio when the solvent for preparation was added was shown in terms of a percentage, and a 50% inhibiting concentration (IC50) was calculated.
# Incidentally, when the test compound has a protected carboxyl group, the sample was applied to the test after carrying out the following deprotection treatment. First, the test compound was dissolved in ethanol, and hydrolyzed (at room temperature for 2 hours) by adding an equal volume of a 0.1 N aqueous sodium hydroxide solution. Then, the solution was neutralized by adding a 0.1 N aqueous hydrochloric acid solution, and the resulting solution was diluted by using a preparation solvent (composition: ethanol/0.1 N aqueous sodium hydroxide solution/0.1 N aqueous hydrochloric acid solution=1/1/1) to a predetermined concentration to make a test compound solution.
# [2] = system: platelet aggregation induced by ADP and epinephrine; test: Ex vivo ADP induced-platelet aggregation inhibiting activity after oral administration to dogs; type: in vivo; conditions: beagle dogs, ADP 10 μM + epinephrine 1 μM
# Method: (§1) Ex Vivo ADP Induced-platelet Aggregation Inhibiting Activity
# As a test animal, 2 to 3 beagle dogs were used as one group.
# (§2) Test compounds were suspended in a dimethylsulfoxide: 0.5% aqueous sodium carboxymethylcellulose solution (=1:99) and orally administered. To the animals for control group, a dimethylsulfoxide: 0.5% aqueous sodium carboxymethylcellulose solution (=1:99) containing no test compound was orally administered.
# (§3) With regard to the respective groups, 5 ml of blood was each collected from cervical vein at the predetermined times before and after administration of the test compound by using a syringe to which 3.8% of sodium citrate was added. The resulting citrate-added blood was centrifuged at 80×g (=700 rpm) for 10 minutes, and then, the supernatant was fractionated as platelet-rich plasma (PRP). The under layer was further centrifuged at 2000×g (3200 rpm) for 10 minutes and the supernatant was fractionated as platelet-poor plasma (PPP) and used for ADP aggregation (coagulation) measurement.
# (§4) PRP was diluted by PPP to adjust the number of platelet to 30 to 40×10^4 /μL, and platelet aggregation induced by ADP was measured by using an aggrigometer (available from NBS Co., Hematracer 801). First, 190 μL of PRP was placed in a glass cuvette for exclusive use and pre-incubated while stirring (1000 ppm) at 37° C. for 5 minutes. Thereafter, 10 μL of an ADP solution (final concentration 10 μM) and an epinephrine solution (final concentration 1 μM) was added thereto to induce platelet aggregation. Change in transmittance caused by platelet aggregation was recorded for 3 minutes after addition of ADP.
# (§5) Transmittances of PRP and PPP were made 0 and 100%, respectively, and the maximum transmittance after adding ADP was made the maximum aggregation ratio.
# (§6) The platelet aggregation inhibiting ratio was shown in terms of a percentage of the maximum aggregation ratio when the test compound was added divided by the maximum aggregation ratio when the solvent for preparation was added.
# [3] = system: platelet aggregation induced by ADP; test: Ex vivo ADP induced-platelet aggregation inhibiting activity after oral administration to monkeys; type: in vivo; conditions: cynomolgus monkeys, ADP 20 μM
# Description: as §1
# As a test animal, 2 to 3 monkeys (cynomolgus monkeys) born in China were used as one group.
# as §2
# as §3, with “femoral” for “cervical”, “platelet rich” for “platelet-rich”
# as §4, with “by using a nephelometric platelet aggregation meter (available from” for “by using an aggrigometer (available from”, “10 μL (final concentration 20 μM) of an” for “10 μL of an”, “ADP solution was added” for “ADP solution (final concentration 10 μM) and an epinephrine solution (final concentration 1 μM) was added”
# as §5, §6
# [4] = system: platelet aggregation; conditions: reported in Thrombosys, Res., 56, 6, 687 (1989); cited from earlier work
# [5] = system: fibrinogen receptor; conditions: reported in Thrombosys, Res., 56, 6, 687 (1989); cited from earlier work
compound,measurement,setting,value
"N=C(N)c1ccc(C(=O)N[C@@H](Cc2ccc([N+](=O)[O-])cc2)C(=O)N2CCc3sc(CC(=O)O)cc3C2)cc1 [Example I-5, 5-[N-(4-amidinobenzoyl)-L-4-nitrophenylalanyl]-4,5,6,7-tetrahydrothieno[3,2-c]pyridin-2-acetic acid.trifluoroacetate]",pIC50,"[1]; Homo sapiens, Platelet",7.52
"CCOC(=O)Cn1cc2c(n1)CCN(C(=O)[C@H](Cc1ccc([N+](=O)[O-])cc1)NC(=O)c1ccc(C(=N)NO)cc1)C2 [Example I-85, Ethyl 5-[N-[4-(N-hydroxyamidino)benzoyl]-L-4-nitrophenylalanyl]-4,5,6,7-tetrahydropyrazolo[4,3-c]pyridin-2-acetate]",ex vivo Platelet aggregation inhibiting ratio,"[2]; 0.3 mg/kg p.o., 1 hr",61%
same,ex vivo Platelet aggregation inhibiting ratio,"[2]; 0.3 mg/kg p.o., 4 hr",94%
same,ex vivo Platelet aggregation inhibiting ratio,"[2]; 0.3 mg/kg p.o., 8 hr",41%
"CCOC(=O)Cn1cc2c(n1)CCN(C(=O)[C@H](Cc1ccc([N+](=O)[O-])cc1)NC(=O)c1ccc(C(=N)N)cc1)C2 [Example I-76, Ethyl 5-[N-(4-amidinobenzoyl)-L-4-nitrophenylalanyl]-4,5,6,7-tetrahydropyrazolo[4,3-c]pyridin-2-acetate.trifluoroacetate]",platelet aggregation inhibiting activities even in oral administration,[3],excellent platelet aggregation inhibiting activities
same,sustained activity,[3],excellent sustained activity
"CCOC(=O)Cn1cc2c(n1)CCN(C(=O)[C@H](Cc1ccc([N+](=O)[O-])cc1)NC(=O)c1ccc(C(=N)NC(=O)Oc3ccccc3)cc1)C2 [Example I-115, Ethyl 5-[N-[4-(N-phenoxycarbonylamidino)benzoyl]-L-4-nitrophenylalanyl)-4,5,6,7-tetrahydropyrazolo[4,3-c]pyridin-2-acetate]",ex vivo Platelet aggregation inhibiting ratio,"[2]; 0.3 mg/kg p.o., 1 hr",35%
same,ex vivo Platelet aggregation inhibiting ratio,"[2]; 0.3 mg/kg p.o., 4 hr",43%
same,ex vivo Platelet aggregation inhibiting ratio,"[2]; 0.3 mg/kg p.o., 8 hr",22%
"N=C(N)c1ccc(C(=O)N[C@@H](Cc2ccccc2)C(=O)N2CCc3nn(CC(=O)O)cc3C2)cc1 [Example I-128, 5-[N-(4-amidinobenzoyl)-L-phenylalanyl]-4,5,6,7-tetrahydropyrazolo[4,3-c]pyridin-2-acetic acid.trifluoroacetate]",pIC50,"[1]; Homo sapiens, Platelet",7.30
"C[C@H](NC(=O)c1ccc(C(=N)N)cc1)C(=O)N1CCc2nn(CC(=O)O)cc2C1 [Example I-126, 5-[N-(4-amidinobenzoyl)-L-alanyl]-4,5,6,7-tetrahydropyrazolo[4,3-c]pyridin-2-acetic acid.trifluoroacetate]",pIC50,"[1]; Homo sapiens, Platelet",7.10
Arg-Gly-Asp-Ser (RGDS; printed: Arg-Gly-Asp-Ser) [peptide derivative such as Arg-Gly-Asp-Ser (hereinafter abbreviated to as RGDS)],platelet aggregation inhibiting action,[4],platelet aggregation inhibiting action
same,antagonistic action against a fibrinogen receptor,[5],antagonistic action against a fibrinogen receptor
same,pIC50,[1],5.40
"N=C(N)c1ccc(C(=O)N[C@@H](Cc2ccc([N+](=O)[O-])cc2)C(=O)N2C3CCC2c2cn(CC(=O)O)nc2C3)cc1 (stereo partly drawn) [Example I-91, 5-[N-(4-amidinobenzoyl)-L-4-nitrophenylalanyl]-4,6-ethano-4,5,6,7-tetrahydropyrazolo[4,3-c]pyridin-2-acetic acid]",pIC50,"[1]; Homo sapiens, Platelet",7.30
"N=C(N)c1ccc(C(=O)N[C@@H](Cc2ccc(OCc3ccccc3)cc2)C(=O)N2CCc3nn(CC(=O)O)cc3C2)cc1 [Example I-138, 5-[N-(4-amidinobenzoyl)-L-O-benzyltyrosyl)-4,5,6,7-tetrahydropyrazolo[4,3-c]pyridin-2-acetic acid.trifluoroacetate]",pIC50,"[1]; Homo sapiens, Platelet",7.22
"CCOC(=O)Cn1cc2c(n1)CCN(C(=O)[C@H](Cc1ccc([N+](=O)[O-])cc1)NC(=O)c1ccc(C(=N)NC(=O)OCC)cc1)C2 [Example I-77, Ethyl 5-[N-[4-(N-ethoxycarbonylamidino)benzoyl]-L-4-nitrophenylalanyl]-4,5,6,7-tetrahydropyrazolo[4,3-c]pyridin-2-acetate]",platelet aggregation inhibiting activities even in oral administration,[3],excellent platelet aggregation inhibiting activities
same,sustained activity,[3],excellent sustained activity
same,ex vivo Platelet aggregation inhibiting ratio,"[2]; 1 mg/kg p.o., 1 hr",60%
same,ex vivo Platelet aggregation inhibiting ratio,"[2]; 1 mg/kg p.o., 4 hr",85%
same,ex vivo Platelet aggregation inhibiting ratio,"[2]; 1 mg/kg p.o., 8 hr",63%
"CN(C(=O)c1ccc(C(=N)N)cc1)[C@@H](Cc1ccc([N+](=O)[O-])cc1)C(=O)N1CCc2nn(CC(=O)O)cc2C1 [Example I-136, 5-[N-(4-amidinobenzoyl)-N-methyl-L-4-nitrophenylalanyl)-4,5,6,7-tetrahydropyrazolo[4,3-c]pyridin-2-acetic acid.trifluoroacetate]",pIC50,"[1]; Homo sapiens, Platelet",7.22
"N=C(N)c1ccc(C(=O)N[C@@H](Cc2ccc([N+](=O)[O-])cc2)C(=O)N2CCc3nn(CC(=O)O)cc3C2)cc1 [Example I-79, 5-[N-(4-amidinobenzoyl)-L-4-nitrophenylalanyl]-4,5,6,7-tetrahydropyrazolo[4,3-c]pyridin-2-acetic acid.trifluoroacetate]",pIC50,"[1]; Homo sapiens, Platelet",7.70
